This assay concerns Salmonella Enterica ATCC 10708. Nature of the assay: Antimicrobial efficacy on inoculated chicken drumettes (log10 reduction, nBPW neutralizer; Colby synergy). In kind it is cell-based. As to conditions: for Observed Average Reduction (AntiLog10 value): antiLog10 of the observed log10 reduction; for Observed Average Reduction (AntiLog10 value) / Observed Average Log10 Reduction: Salmonella Enterica ATCC 10708; for Observed Average Log10 Reduction: chicken drumettes soaked 90 seconds in composition, recovery in nBPW neutralizer.

Experimental findings from patent publication US20240298638A1, “METHODS AND COMPOSITIONS FOR REDUCING MICROBIAL CONTAMINANTS DURING POULTRY PROCESSING” (DIVERSEY, INC., priority 2020, published 2024) are described below.

For `CC(=O)OO` [PAA, peracetic acid], the “Observed Average Reduction (AntiLog10 value)” value was 14.15 and the “Observed Average Log10 Reduction” value worked out at 1.16 log10.

`CC(O)CO` (centres unmarked) [Propylene glycol]: the “antimicrobial efficiency of the organic solvent by itself” value (by itself) is given as “did not provide any antimicrobial efficiency”.

For the compound `CCC(=O)O` [propionic acid], the “Observed Average Reduction (AntiLog10 value)” value stood at 6.17 and the “Observed Average Log10 Reduction” value amounted to 0.79 log10.
